Data reported in patent US20140275969A1, “FUNCTIONAL BROWN ADIPOSE TISSUE IMAGING TECHNIQUE” (GENERAL ELECTRIC COMPANY, priority 2013, published 2014).
“Also recorded” adds a separate entry of the source. Marks after values point to notes of the source that are not given here.

What was measured:
[1] = human full blood at 37 degrees C.; cited from earlier work
[2] = system: brown adipose tissue (BAT-associated dorsal interscapular region); test: Hyperpolarized 13C MR imaging of brown adipose tissue activation after norepinephrine stimulation; assay type: in vivo, male Sprague-Dawley rats
Description: (§1) The following experimental results are from studies using male Sprague-Dawley rats (n=5, weight=336 g, SD=66 g) that were assessed for brown adipose tissue activation and assessment according to certain embodiments of the disclosure. The animals were kept at an ambient room temperature of 22° C. Ketamine/xylazine was used for anesthesia, with periodic intramuscular re-administration to maintain anesthesia (80-100 mg/kg ketamine, 8-10 mg/kg xylazine). Blood oxygen saturation and heart rate were monitored using a peripheral pulse oximeter placed on the tail. The body temperature of the animal was maintained throughout the imaging procedures using a heated water pad.
(§2) The animals were scanned in the supine position using a 3T GE MR750 scanner (GE Healthcare, Waukesha, Wis.). A micro-strip dual-tuned ^1H/^13C rat coil (Magvale, San Francisco, Calif.) was used. The rat was positioned so that the heart was in the centre of the coil, taking care to position the dorsal interscapular fat pad to remain within the sensitive region of the coil. A T2-weighted fast spin echo (FSE) (TE, 87 ms; TR, 5 s; matrix size, 192×160; FOV, 12×12 cm^2; slice thickness, 3 mm) sequence was used to obtain an anatomical reference for co-registration. A 2D FSE IDEAL sequence (TR, 5 s; matrix size, 192×160; FOV, 12×12 cm^2, slice thickness, 3 mm) was used to obtain water and fat images.
(§3) Hyperpolarized ^13C MR imaging scans were performed following intravenous tail vein infusions of 2.0 mL/80 mM pre-polarized [1-^13C] pyruvate. Pyruvate was injected over 10 seconds, with the MR imaging acquisition started simultaneously with the start of injection. Hyperpolarized scans were performed during baseline (n=5) and stimulated (n=3) conditions, 15 minutes after 2.5 mg/kg intraperitoneal norepinephrine (NE) injection, separated by approximately 1 hour to prepare the hyperpolarized sample. Pyruvate, bicarbonate, and lactate were imaged in an axial orientation using a multi-slice, single-shot, time-resolved 13C spiral imaging pulse sequence previously developed for large animal cardiac imaging (TR, 5 s; FOV, 48×48 cm^2; in-plane resolution, 6.8×6 8 mm^2; 6 slices, slice thickness/spacing, 10 mm/1 mm; pyruvate FA 10°, bicarbonate and lactate FA 60°; scan time, 1 min) (18, 24, 25). Each metabolic volume was acquired once during each TR, giving a total of 12 frames.
(§4) ROIs were drawn using the T2-weighted anatomical images, over the heart, kidneys, and in the dorsal interscapular region, a known depot of BAT in rodents. The ^13C image intensity in these ROIs were normalized to the temporal maximum pyruvate signal in the heart, and corrected for nominal FA by dividing by sin(FA). Statistical significance between baseline and norepinephrine stimulated conditions were assessed using a two-tailed, unpaired Student's t-test. Statistical significance was considered at the P<0.05 level.
To separate the effect from the effect of a change in perfusion, the dynamic data was fit on a voxel-by-voxel basis to obtain the apparent rate constants for pyruvate-to-bicarbonate conversion (kpyr,bic, s^−1) and pyruvate-to-lactate exchange (kpyr,lac, s^−1).

[3] = system: heart; test: Hyperpolarized 13C MR imaging after norepinephrine stimulation, heart ROI; assay type: in vivo, male Sprague-Dawley rats
Description: as §1, §2, §3, §4

[4] = system: kidneys; test: Hyperpolarized 13C MR imaging after norepinephrine stimulation, kidney ROI; assay type: in vivo, male Sprague-Dawley rats
Description: as §1, §2, §3, §4

[5] = BAT-associated dorsal interscapular region, voxel-by-voxel fit of dynamic data

| Compound | T1 relaxation [1] | 13C bicarbonate signal change following norepinephrine stimulation, relative to substrate signal in the heart ([2]; BAT-associated dorsal interscapular region, in words) | Difference in apparent pyruvate-to-bicarbonate conversion rate (kpyr,bic) versus baseline [2, 5] | Difference in apparent pyruvate-to-lactate conversion rate (kpyr,lac) versus baseline [2, 5] | Increase in hyperpolarized [1-13C] lactate (lactate-to-pyruvate ratio) versus baseline ([2]; BAT-associated interscapular region, P<0.001) | Increase in hyperpolarized 13C bicarbonate (bicarbonate-to-pyruvate ratio) versus baseline ([2]; BAT-associated interscapular region, P<0.01) | Hyperpolarized [1-13C] lactate signal change following norepinephrine infusion ([2]; dorsal interscapular region, in words) | Maximum bicarbonate to maximum cardiac pyruvate signal ratio ([2]; interscapular region, 15 minutes after 2.5 mg/kg intraperitoneal norepinephrine, n = 2, mean±SD) | Maximum lactate to maximum cardiac pyruvate signal ratio ([2]; interscapular region, 15 minutes after 2.5 mg/kg intraperitoneal norepinephrine, n = 3, mean±SD) | Maximum bicarbonate to maximum cardiac pyruvate signal ratio ([3]; 15 minutes after 2.5 mg/kg intraperitoneal norepinephrine, n = 2, mean±SD) | Maximum lactate to maximum cardiac pyruvate signal ratio ([3]; 15 minutes after 2.5 mg/kg intraperitoneal norepinephrine, n = 3, mean±SD) | Increase in hyperpolarized lactate signal versus baseline ([3]; P<0.001) | Hyperpolarized [1-13C] lactate signal change following norepinephrine infusion ([3]; in words) | 13C bicarbonate signal change following norepinephrine stimulation, relative to substrate signal in the heart ([3]; in words, listed as NE) | 13C bicarbonate signal change following norepinephrine stimulation, relative to substrate signal in the heart ([3]; in words, listed as norepinephrine) | Maximum bicarbonate to maximum cardiac pyruvate signal ratio ([4]; kidney, 15 minutes after 2.5 mg/kg intraperitoneal norepinephrine, n = 2, mean±SD) | Maximum lactate to maximum cardiac pyruvate signal ratio ([4]; kidney, 15 minutes after 2.5 mg/kg intraperitoneal norepinephrine, n = 3, mean±SD) | 13C bicarbonate signal change following norepinephrine stimulation, relative to substrate signal in the heart ([4]; kidney, in words) | Increase in hyperpolarized lactate signal versus baseline ([4]; kidneys, P<0.05) | Hyperpolarized [1-13C] lactate signal change following norepinephrine infusion ([4]; kidneys, in words) |
| --- | --- | --- | --- | --- | --- | --- | --- | --- | --- | --- | --- | --- | --- | --- | --- | --- | --- | --- | --- | --- |
| CC(=O)[13C](=O)O [^13C1-pyruvate, [1-^13C] pyruvate] | about 42 s |  |  |  |  |  |  |  |  |  |  |  |  |  |  |  |  |  |  |  |
| NC[C@H](O)c1ccc(O)c(O)c1 [Norepinephrine, norepinephrine] |  | increased | 3.4 fold | 4.0 fold | 4.0 fold | 4.3 fold | Increases | 0.0047 ± 0.0010*^ | 0.0543 ± 0.0051 | 0.0099 ± 0.0032^ns | 0.0816 ± 0.0191 | 4.0 fold | Increases | remained constant | remained constant; also recorded: not statistically significant | 0.0036 ± 0.0028^ns | 0.0625 ± 0.0130 | decreased | 1.9 fold | Increases |
